Structures can show the parent of a compound that is named as a salt.
How the values were obtained:
ovarian cancer = assay: Phase 2a efficacy of AL3818 with standard platinum-based chemotherapy, ovarian cancer patients; type: in vivo, human; set-up: key: stable disease (SD); partial response (PR); complete response (CR); settings: single ovarian cancer subjects, 8 mg daily + chemotherapy, December 2018, PtR = platinum resistant
Protocol: (§1) Phase 1 was completed in Q1 2017 at one study site to determine the recommend phase 2 dose (RP2D). The RP2D was determined to be AL3818 dihydrochloride 8 mg orally once daily in 21-day cycles (14 days on treatment, 7 days off treatment) on Day 8 to Day 21 of the cycle with platinum-based chemotherapy on Day 1 of the cycle.
(§2) Phase 2a is currently ongoing at four study sites in the U.S. The first subject was enrolled in April 2017. As of December 2018, 48 subjects with recurrent or metastatic endometrial, ovarian, and cervical cancer have been enrolled. 24 subjects are still on treatment and 24 subjects have discontinued treatment. 21 endometrial cancer subjects have been enrolled, 9 subjects have discontinued treatment. 8 subjects discontinued due to disease progression, 1 subject discontinued due to toxicity. 12 subjects remain on treatment.

[1] = test system: recurrent or advanced endometrial, ovarian, and cervical cancer; assay: Phase 1 efficacy of AL3818 with standard platinum-based chemotherapy (best response); type: in vivo, human; set-up: key to Best response: stable disease (SD); partial response (PR); complete response (CR)
From the text: Patients in this trial were females with recurrent or advanced endometrial, ovarian, and cervical cancer.
In this described study, all patients received at least one dose of AL3818 dihydrochloride orally. Aside of three patients were permanent discharged from this study due to severe adverse events (SAE), the other six patients' best response ranged from stable disease (SD) (⅙, 16.7%), partial response (PR) ( 4/6, 66.6%) to complete response (CR) (⅙, 16.7%).
1. The daily dosage of compound AL3818 was the initial dosage that administrated to the patients, which might subject to a dosage reduction if serious side-effects were observed.
2. The best response represented the most favorable outcome during the entire treatment, regardless of the possible disease progression (PD) after that.

[2] = Phase 2a chemo combination trial: TEAEs and toxicity; type: in vivo, human
Protocol: as §1, §2

endometrial cancer = assay: Phase 2a efficacy of AL3818 with standard platinum-based chemotherapy, endometrial cancer patients; type: in vivo, human; set-up: key to Best response: stable disease (SD); partial response (PR); complete response (CR)
Protocol: as §1, §2
Combining Phase 1 and Phase 2a subjects, 24 subjects with endometrial cancer have been enrolled in study AL3818-US-002. 19 subjects have had evaluable responses as of December 2018. There were eight subjects enrolled in Phase 2a of the study as first-line treatment.

[3] = Phase 1 chemo combination dosing de-escalation trial: safety, tolerability, DLT events
From the text: A Phase 1 trial was designed to determine the recommended phase 2 dose (RP2D) for part 2 (phase 2a) of the study.
In this presented chemo combination therapy regimen, in the first day of the 21-day cycle, standard platinum-based chemotherapeutic agents were administrated intravenously to the patients. […] 1-6 cycles of chemotherapy were applied for each individual patient.
After the intravenous (IV) chemotherapy on the Day 1, Day 2 to Day 7 was the therapy free period.
From Day 22 (C2D1) (CXDY is the abbreviation for Cycle X Day Y. For example, C2D1 represents Cycle 2 Day 1), a new cycle began, paclitaxel and carboplatin (or cisplatin for cervical cancer) were administrated to the patients and Day 23 to Day 28 (C2D2 • C2D7) was the therapy free period again.
The first 21-day cycle plus 7 days (C1D1-C2D8 or Day 1 to Day28) was crucial in this regimen and it was called the primary safety evaluation period. The recommended phase 2 dose (RP2D) was obtained by evaluating according to the standard for the dose limiting toxicity (DLT) events of patients in this period of time.
This evaluation period could be extended to the end of second cycle for the patients who passed the primary safety evaluation period.
In this embodiment, if any serious dose limiting toxicity (DLT) events or other serious side effects occurred, according to the serious level, the patients might require to withdraw the treatment, reduce the dose of medication or switch to other medications.

PDGFR-a = PDGFR-a (Homo sapiens, UniProt P16234); settings: cited from earlier work
VEGFR3 = VEGFR3 (Homo sapiens, UniProt P35916); settings: cited from earlier work
FGFR3 = FGFR3 (Homo sapiens, UniProt P22607); settings: cited from earlier work
FGFR1 = FGFR1 (Homo sapiens, UniProt P11362); settings: cited from earlier work
[4] = AL3818 combination therapy with Nivolumab Phase I trial (DLT); type: in vivo, human; settings: 10 mg oral Day 1-14 + Nivolumab 240 mg infusion Day 1 and Day 15 per 28 days; six sarcoma subjects
From the text: AL3818 and Nivolumab administrations are both started on Day 1.
Nivolumab is administrated via infusion on Day 1 and Day 15 for twice per 28 days, 21 days as one cycle will still be applied for the combination therapy. Nivolumab can be administrated via infusion on Day 1 once per 28 days, 21 days as one cycle will still be applied for the combination therapy. AL3818 is administrated orally from Day 1 to Day 14 and off from Day 15 to Day 21 for 21 days as one cycle. Nivolumab is administrated via infusion on Day 1 and Day 15 for twice per 28 days starting dose at 240 mg twice per 28 days. Nivolumab can be optionally administrated via infusion on Day 1 once per 28 days at 480 mg. AL3818 is administrated orally at Day 1-Day 14 at starting dose of 12 mg.
Treatments of subject 001 (liposarcoma), 002 (synovial sarcoma), 003 (angiosarcoma), 004 (leiomyosarcoma), 005 (undifferentiated pleomorphic sarcoma) and 006 (leiomyosarcoma) at 10 mg oral dosing Day 1-14 combing with Nivolumab at Day 1 and Day 15 for twice per 28 days starting dose at 240 mg infusion have been completed with one DLT (subject 002). Dose escalation to 12 mg combination therapies with Nivolumab with cervical cancer subject and other sarcoma subjects are ongoing.

tumor = settings: mouse model, disclosed in earlier filing; cited from earlier work
FGFR2 = FGFR2 (Homo sapiens, UniProt P21802); settings: cited from earlier work
VEGFR2/KDR = VEGFR2/KDR (Homo sapiens, UniProt P35968); settings: cited from earlier work
VEGFR1 = VEGFR1 (Homo sapiens, UniProt P17948); settings: cited from earlier work
c-KIT = c-KIT (Homo sapiens, UniProt P10721); settings: cited from earlier work
[5] = single subject, ovarian cancer, daily dosage 8 mg + standard paclitaxel and carboplatin
[6] = single subjects, endometrial cancer, daily dosage 8 mg + standard paclitaxel and carboplatin
[7] = single subjects, ovarian cancer, initial daily dosage 12 mg + standard platinum-based chemotherapy
[8] = 21 endometrial cancer subjects enrolled in Phase 2a, December 2018
[9] = endometrial cancer, second- and further-line treatment, eleven subjects

VEGFR2/KDR, sequence (P35968 20-1356): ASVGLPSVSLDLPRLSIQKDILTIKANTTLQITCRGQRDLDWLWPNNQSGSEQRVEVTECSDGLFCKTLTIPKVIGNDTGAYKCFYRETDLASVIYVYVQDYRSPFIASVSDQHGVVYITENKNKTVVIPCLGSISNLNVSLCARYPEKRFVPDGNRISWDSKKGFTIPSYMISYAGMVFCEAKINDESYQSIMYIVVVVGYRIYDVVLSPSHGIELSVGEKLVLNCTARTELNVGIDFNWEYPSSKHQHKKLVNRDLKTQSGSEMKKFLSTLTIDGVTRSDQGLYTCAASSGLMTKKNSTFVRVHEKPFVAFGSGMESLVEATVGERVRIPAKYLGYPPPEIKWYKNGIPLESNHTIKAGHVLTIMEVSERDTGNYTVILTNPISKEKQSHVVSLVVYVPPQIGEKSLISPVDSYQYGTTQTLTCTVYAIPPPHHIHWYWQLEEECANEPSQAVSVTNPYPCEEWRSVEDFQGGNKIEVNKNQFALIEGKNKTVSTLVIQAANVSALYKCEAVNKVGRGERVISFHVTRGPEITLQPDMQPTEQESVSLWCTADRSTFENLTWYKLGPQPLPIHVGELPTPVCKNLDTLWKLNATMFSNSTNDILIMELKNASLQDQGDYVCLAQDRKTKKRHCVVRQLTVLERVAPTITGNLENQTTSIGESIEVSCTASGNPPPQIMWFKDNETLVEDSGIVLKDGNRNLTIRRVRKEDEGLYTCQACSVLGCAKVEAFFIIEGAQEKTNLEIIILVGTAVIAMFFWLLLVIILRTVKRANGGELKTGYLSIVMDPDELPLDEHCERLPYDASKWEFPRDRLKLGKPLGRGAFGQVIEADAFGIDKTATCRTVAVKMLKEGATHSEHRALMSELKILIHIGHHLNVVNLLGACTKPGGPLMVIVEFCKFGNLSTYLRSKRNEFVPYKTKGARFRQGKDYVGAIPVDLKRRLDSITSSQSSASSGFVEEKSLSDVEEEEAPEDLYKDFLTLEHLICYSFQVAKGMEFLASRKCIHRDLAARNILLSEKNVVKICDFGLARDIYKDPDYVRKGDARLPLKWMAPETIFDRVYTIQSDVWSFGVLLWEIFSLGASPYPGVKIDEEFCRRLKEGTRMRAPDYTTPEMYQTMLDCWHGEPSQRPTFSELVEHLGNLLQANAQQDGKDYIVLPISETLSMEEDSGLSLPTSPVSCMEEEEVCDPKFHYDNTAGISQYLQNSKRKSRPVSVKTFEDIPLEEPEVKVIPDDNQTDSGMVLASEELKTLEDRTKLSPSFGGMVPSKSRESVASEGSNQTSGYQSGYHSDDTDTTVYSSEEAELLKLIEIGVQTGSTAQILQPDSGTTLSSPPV
c-KIT, sequence (P10721 26-976): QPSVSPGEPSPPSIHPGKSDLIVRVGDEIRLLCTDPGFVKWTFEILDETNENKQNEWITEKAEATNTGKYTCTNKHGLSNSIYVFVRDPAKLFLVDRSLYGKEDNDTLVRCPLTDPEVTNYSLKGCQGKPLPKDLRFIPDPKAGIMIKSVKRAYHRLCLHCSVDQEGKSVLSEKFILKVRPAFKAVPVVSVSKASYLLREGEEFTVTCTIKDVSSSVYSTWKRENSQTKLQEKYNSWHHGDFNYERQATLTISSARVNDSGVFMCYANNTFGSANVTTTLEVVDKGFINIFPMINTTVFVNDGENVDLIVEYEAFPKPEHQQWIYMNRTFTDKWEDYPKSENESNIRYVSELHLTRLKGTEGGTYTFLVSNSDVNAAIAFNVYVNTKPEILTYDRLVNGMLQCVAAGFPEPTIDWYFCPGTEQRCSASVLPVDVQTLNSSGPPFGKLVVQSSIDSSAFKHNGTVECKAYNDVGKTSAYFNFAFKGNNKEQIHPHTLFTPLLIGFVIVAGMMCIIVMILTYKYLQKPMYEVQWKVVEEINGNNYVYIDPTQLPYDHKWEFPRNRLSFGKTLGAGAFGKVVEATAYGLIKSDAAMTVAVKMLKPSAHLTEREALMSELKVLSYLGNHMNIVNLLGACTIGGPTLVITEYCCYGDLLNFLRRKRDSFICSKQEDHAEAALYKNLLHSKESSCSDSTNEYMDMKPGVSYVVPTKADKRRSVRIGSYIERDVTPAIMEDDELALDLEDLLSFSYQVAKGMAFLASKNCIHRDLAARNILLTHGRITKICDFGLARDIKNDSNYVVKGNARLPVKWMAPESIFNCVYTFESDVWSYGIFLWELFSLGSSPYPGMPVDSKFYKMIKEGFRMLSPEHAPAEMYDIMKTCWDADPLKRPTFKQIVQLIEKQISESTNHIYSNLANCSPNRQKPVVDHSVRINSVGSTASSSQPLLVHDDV
VEGFR1, sequence (P17948 27-1338): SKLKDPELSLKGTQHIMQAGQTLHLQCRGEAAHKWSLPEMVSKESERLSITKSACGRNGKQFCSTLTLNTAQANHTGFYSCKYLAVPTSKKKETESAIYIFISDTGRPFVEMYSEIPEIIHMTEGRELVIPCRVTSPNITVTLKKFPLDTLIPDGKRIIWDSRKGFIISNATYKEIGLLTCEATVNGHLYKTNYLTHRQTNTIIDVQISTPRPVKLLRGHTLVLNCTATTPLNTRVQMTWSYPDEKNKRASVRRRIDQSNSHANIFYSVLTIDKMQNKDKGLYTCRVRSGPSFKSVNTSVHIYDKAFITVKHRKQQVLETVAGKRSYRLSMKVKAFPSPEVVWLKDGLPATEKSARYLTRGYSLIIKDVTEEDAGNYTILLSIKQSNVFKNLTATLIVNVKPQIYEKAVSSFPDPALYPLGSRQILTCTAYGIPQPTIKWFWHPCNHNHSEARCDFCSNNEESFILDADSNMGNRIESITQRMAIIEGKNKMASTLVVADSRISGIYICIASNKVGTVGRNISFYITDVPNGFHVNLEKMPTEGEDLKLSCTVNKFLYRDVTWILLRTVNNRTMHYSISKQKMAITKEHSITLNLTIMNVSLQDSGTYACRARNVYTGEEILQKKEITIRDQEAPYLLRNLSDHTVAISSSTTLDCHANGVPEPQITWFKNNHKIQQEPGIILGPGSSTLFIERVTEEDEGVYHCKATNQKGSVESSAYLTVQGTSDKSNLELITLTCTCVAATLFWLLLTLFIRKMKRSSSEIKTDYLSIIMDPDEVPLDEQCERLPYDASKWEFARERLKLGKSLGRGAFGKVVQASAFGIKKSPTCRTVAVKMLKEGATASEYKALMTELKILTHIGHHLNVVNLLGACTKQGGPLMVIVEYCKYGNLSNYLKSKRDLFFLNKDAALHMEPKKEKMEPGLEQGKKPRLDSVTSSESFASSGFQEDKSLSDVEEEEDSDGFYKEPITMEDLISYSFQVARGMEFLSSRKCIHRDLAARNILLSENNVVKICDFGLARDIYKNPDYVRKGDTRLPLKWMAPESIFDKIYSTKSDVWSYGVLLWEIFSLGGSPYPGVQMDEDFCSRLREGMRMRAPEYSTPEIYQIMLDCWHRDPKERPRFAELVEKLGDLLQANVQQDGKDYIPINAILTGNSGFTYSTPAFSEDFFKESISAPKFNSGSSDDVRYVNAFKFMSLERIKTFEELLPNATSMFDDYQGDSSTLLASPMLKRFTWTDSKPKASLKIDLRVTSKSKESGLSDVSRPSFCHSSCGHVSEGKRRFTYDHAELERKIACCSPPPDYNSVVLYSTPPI
VEGFR3, sequence (P35916 25-1363): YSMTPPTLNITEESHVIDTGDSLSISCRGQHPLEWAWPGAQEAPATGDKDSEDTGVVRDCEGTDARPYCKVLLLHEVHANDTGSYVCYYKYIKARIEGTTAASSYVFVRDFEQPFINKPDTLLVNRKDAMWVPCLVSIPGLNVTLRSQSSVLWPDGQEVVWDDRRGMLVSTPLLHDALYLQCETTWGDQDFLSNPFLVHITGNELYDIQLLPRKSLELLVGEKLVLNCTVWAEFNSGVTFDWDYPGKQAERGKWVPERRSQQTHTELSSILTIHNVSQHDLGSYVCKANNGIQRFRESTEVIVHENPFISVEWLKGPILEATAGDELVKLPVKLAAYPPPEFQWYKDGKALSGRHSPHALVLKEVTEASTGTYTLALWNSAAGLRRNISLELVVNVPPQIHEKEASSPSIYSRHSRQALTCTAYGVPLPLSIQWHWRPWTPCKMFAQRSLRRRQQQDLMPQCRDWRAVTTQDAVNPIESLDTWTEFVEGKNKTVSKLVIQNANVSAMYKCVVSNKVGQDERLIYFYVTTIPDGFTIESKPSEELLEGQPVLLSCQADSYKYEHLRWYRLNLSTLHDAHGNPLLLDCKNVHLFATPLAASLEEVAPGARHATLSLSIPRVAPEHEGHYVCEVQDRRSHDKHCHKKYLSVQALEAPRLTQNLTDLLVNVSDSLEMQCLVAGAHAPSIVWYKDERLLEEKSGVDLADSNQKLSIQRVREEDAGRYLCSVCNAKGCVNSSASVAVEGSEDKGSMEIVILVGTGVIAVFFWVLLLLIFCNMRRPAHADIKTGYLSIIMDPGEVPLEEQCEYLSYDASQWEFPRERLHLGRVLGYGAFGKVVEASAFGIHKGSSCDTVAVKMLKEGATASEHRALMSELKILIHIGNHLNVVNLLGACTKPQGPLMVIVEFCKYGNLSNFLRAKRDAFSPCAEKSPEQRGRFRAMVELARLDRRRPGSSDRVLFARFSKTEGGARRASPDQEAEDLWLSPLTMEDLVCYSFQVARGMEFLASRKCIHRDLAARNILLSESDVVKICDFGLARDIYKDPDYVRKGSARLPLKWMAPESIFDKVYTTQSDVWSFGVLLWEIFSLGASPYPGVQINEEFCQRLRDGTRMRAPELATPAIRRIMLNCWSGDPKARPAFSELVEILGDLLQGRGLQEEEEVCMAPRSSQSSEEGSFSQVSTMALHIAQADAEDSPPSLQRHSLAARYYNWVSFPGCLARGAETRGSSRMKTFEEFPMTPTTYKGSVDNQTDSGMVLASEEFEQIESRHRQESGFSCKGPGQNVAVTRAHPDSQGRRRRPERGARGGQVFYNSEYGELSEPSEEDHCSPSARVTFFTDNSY

For `COc1cc2c(Oc3ccc4[nH]c(C)cc4c3F)ccnc2cc1OCC1(N)CC1` [AL3818 dihydrochloride], the “Best Response (% reduction)” value (ovarian cancer) was “SD”, the “share of patients with best response complete response (CR)” value ([1]; Phase 1, six evaluable patients (1/6)) was 16.7% and the “share of patients with best response partial response (PR)” value ([1]; Phase 1, six evaluable patients (4/6)) was 66.6%. For the same compound, the Best response [1, 5] was “SD”, the Best response [1, 6] was “PR” and the Best response [1, 7] was “PR”. The “subjects discontinued due to toxicity” value [2, 8] was 1 subject, the TEAE abdominal pain ([2]; Phase 2a, % of all TEAEs) was 4.20% and the TEAE alopecia ([2]; Phase 2a, % of all TEAEs) was 1.3%. The TEAE anaemia ([2]; Phase 2a, % of all TEAEs) was 1.8%, the TEAE arthralgia ([2]; Phase 2a, % of all TEAEs) was 1.6% and the TEAE asthenia ([2]; Phase 2a, % of all TEAEs) was 2.2%. The TEAE back pain ([2]; Phase 2a, % of all TEAEs) was 1.5%, the TEAE constipation ([2]; Phase 2a, % of all TEAEs) was 2.7% and the TEAE decreased appetite ([2]; Phase 2a, % of all TEAEs) was 2.7%. The TEAE diarrhea ([2]; Phase 2a, % of all TEAEs) was 6.3%, the TEAE dyspnea ([2]; Phase 2a, % of all TEAEs) was 1% and the TEAE epistaxis ([2]; Phase 2a, % of all TEAEs) was 3%. It also gave a TEAE fatigue ([2]; Phase 2a, % of all TEAEs) of 4.5%, a TEAE flatulence ([2]; Phase 2a, % of all TEAEs) of 1.5% and a TEAE headache ([2]; Phase 2a, % of all TEAEs) of 3.2%. The TEAE hypertension ([2]; Phase 2a, % of all TEAEs) was 3.3%, the TEAE hypokalemia ([2]; Phase 2a, % of all TEAEs) was 1.3% and the TEAE hypomagnesaemia ([2]; Phase 2a, % of all TEAEs) was 1%. It also gave a TEAE insomnia ([2]; Phase 2a, % of all TEAEs) of 1.3%, a TEAE nausea ([2]; Phase 2a, % of all TEAEs) of 4.7% and a TEAE neuropathy peripheral ([2]; Phase 2a, % of all TEAEs) of 2%. For the same compound, the TEAE neutropenia ([2]; Phase 2a, % of all TEAEs) was 2%, the “TEAE neutrophil count decreased” value ([2]; Phase 2a, % of all TEAEs) was 1% and the “TEAE pain in extremity” value ([2]; Phase 2a, % of all TEAEs) was 1.7%. The TEAE pyrexia ([2]; Phase 2a, % of all TEAEs) was 1.2%, the TEAE thrombocytopenia ([2]; Phase 2a, % of all TEAEs) was 1.7% and the “TEAE urinary tract infection” value ([2]; Phase 2a, % of all TEAEs) was 1.3%. For the same compound, the TEAE vomiting ([2]; Phase 2a, % of all TEAEs) was 2.8%, the TEAE weight decreased ([2]; Phase 2a, % of all TEAEs) was 1% and the “subjects discontinued due to disease progression” value (endometrial cancer; [8]) was 8 subjects. For the same compound, the “partial responses (PR) as best responses” value (endometrial cancer; endometrial cancer, first-line treatment, eight subjects) was “five partial responses”, the “Objective response rate (ORR)” value (endometrial cancer; endometrial cancer, first-line treatment, eight subjects Phase 2a (5/8)) was 62.5% and the “disease control rate (DCR)” value (endometrial cancer; endometrial cancer, first-line treatment, eight subjects Phase 2a (6/8)) was 75%. The “complete response (CR) as best responses” value (endometrial cancer; [9]) was “one complete response”, the “partial responses (PR) as best responses” value (endometrial cancer; [9]) was “five partial responses” and the “disease control rate (DCR)” value (endometrial cancer; endometrial cancer, second- and further-line treatment, eleven subjects (9/11)) was 82%. The “Objective response rate (ORR)” value (endometrial cancer; endometrial cancer, second- and further-line treatment, eleven subjects Phase 1 and 2a (6/11)) was 54.5%, the “Best response” value (endometrial cancer; single endometrial cancer subjects, Phase 2a, 8 mg daily + paclitaxel/carboplatin, December 2018) was “CR and PR and SD” and the “dose limiting toxicity (DLT) events” value ([3]; 10 mg daily group, three patients, oral Day 8-21 of 21-day cycle + paclitaxel/carboplatin Day 1) was “one of the patients”. For the same compound, the “dose limiting toxicity (DLT) events during the primary safety evaluation period” value ([3]; 12 mg daily group, three patients, oral Day 8-21 of 21-day cycle + paclitaxel/carboplatin Day 1) was “two of the patients out of three”, the safe daily dosage ([3]; 21-day cycle (14 days on, 7 off) combined with paclitaxel and carboplatin (or cisplatin)) was 8 mg and the “recommended phase 2 dose (RP2D)” value ([3]; oral once daily Day 8-21 of 21-day cycle with platinum-based chemotherapy Day 1) was 8 mg.
In the case of `COc1cc2c(Oc3ccc4[nH]c(C)cc4c3F)ccnc2cc1OCC1(N)CC1` [AL3818, (1-[[4-(4-fluoro-2-methyl-1H-indol-5-yloxy)-6-methoxyquinolin-7-yl]oxy]methyl]cyclopropaneamine], the “inhibition of PDGFR-a” value (PDGFR-a) is given as “strong inhibitor”, the “inhibition of VEGFR3 activity” value (VEGFR3) is given as “could inhibit” and the “inhibition of FGFR3” value (FGFR3) is given as “strong inhibitor”. For the same compound, the “inhibition of FGFR1” value (FGFR1) was “strong inhibitor”, the DLT [4] was “one DLT” and the Best response ([1]; single subject, cervical cancer, initial daily dosage 12 mg + standard platinum-based chemotherapy) was “NE/SAE”. The Best response ([1]; single subject, endometrial cancer, initial daily dosage 10 mg + standard platinum-based chemotherapy) was “PR”, the Best response [1, 5] was “SD” and the Best response [1, 6] was “PR”. The Best response ([1]; single subjects, ovarian cancer, initial daily dosage 10 mg + standard platinum-based chemotherapy) was “CR and NE/SAE”, the Best response [1, 7] was “NE/SAE and PR” and the “anti-tumor effect of combination with chemotherapy agents” value (tumor) was “synergistic anti-tumor effects”. The “inhibition of FGFR2” value (FGFR2) was “strong inhibitor”, the “inhibition of VEGFR2/KDR activity” value (VEGFR2/KDR) was “could inhibit” and the “inhibition of VEGFR1 activity” value (VEGFR1) was “could inhibit”. For the same compound, the “inhibition of c-KIT” value (c-KIT) was “strong inhibitor”, the “dose limiting toxicity (DLT) events” value ([3]; 8 mg daily group, three patients, oral Day 8-21 of 21-day cycle + paclitaxel/carboplatin Day 1) was “no patient” and the “tolerability of daily dosage of 12 mg” value ([3]; 12 mg daily together with platinum-based chemotherapy) was “too high”. For the same compound, the TEAE abdominal pain ([3]; Phase 1, nine subjects) was 2.88%, the TEAE alopecia ([3]; Phase 1, nine subjects) was 2.91% and the TEAE chest pain ([3]; Phase 1, nine subjects) was 1.92%. It also gave a TEAE dehydration ([3]; Phase 1, nine subjects) of 1.92%, a TEAE diarrhea ([3]; Phase 1, nine subjects) of 4.81% and a TEAE dizziness ([3]; Phase 1, nine subjects) of 2.88%. For the same compound, the TEAE fatigue ([3]; Phase 1, nine subjects) was 4.81%, the TEAE hypertension ([3]; Phase 1, nine subjects) was 2.88% and the TEAE nausea ([3]; Phase 1, nine subjects) was 9.62%. The TEAE pulmonary embolism ([3]; Phase 1, nine subjects) was 1.92%, the TEAE sore throat ([3]; Phase 1, nine subjects) was 1.92% and the TEAE thrombocytopenia ([3]; Phase 1, nine subjects) was 1.94%. For the same compound, the “TEAE urinary tract infection” value ([3]; Phase 1, nine subjects) was 2.88%, the TEAE vomiting ([3]; Phase 1, nine subjects) was 5.77% and the TEAE weakness generalized ([3]; Phase 1, nine subjects) was 2.88%. For the same compound, the “subjects reporting treatment emergent adverse events (TEAE)” value ([3]; Phase 1, nine subjects (9/9)) was 100%.

— patent US20250345321A1, “CATEQUENTINIB (ANLOTINIB) IN SEQUENTIAL COMBINATION WITH IMMUNOTHERAPY FOR USE IN THE TREATMENT OF CANCER” (ADVENCHEN PHARMACEUTICALS, LLC, priority 2019, published 2025)
